Test results taken from patent US10703765B2 (priority 2014, dated 2020).
Counter-ions that a name gives are not always drawn. Like-named read-outs stand apart in the source and are kept apart here.

Biological target: human σ1 receptor (Homo sapiens, UniProt Q99720)
Assay: biochemical
Assay type: binding
Set-up: μ and σ1 dual binding: key to the marks not given beside the values
[1] = read-out: μ and σ1 dual binding
[2] = combined class from Ki-σ1 (human σ1 receptor, A1) and Ki-μ (human μ-opioid receptor, A2) radioligand binding

human σ1 receptor, sequence (Q99720 whole entry): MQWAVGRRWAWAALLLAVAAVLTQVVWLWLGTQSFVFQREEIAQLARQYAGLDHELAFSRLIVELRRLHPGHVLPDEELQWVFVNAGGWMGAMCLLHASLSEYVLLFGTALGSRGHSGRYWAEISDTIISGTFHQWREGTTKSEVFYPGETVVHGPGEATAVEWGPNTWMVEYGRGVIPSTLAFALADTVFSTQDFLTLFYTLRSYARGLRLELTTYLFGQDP

| Compound | Ki [1] | further results |
| --- | --- | --- |
| CC1OC2(CCN(CCc3ccc(Cl)cn3)CC2)CN(c2ccccc2)C1=O (stereo not shown) [Example 38, 9-(2-(5-chloropypridin-2-yl)ethyl)-2-methyl-4-phenyl-1-oxa-4,9-diazaspiro[5.5]undecan-3-one hydrochloride] |  | Ki: < 500 nM |
| CC(C)C1OC2(CCN(CCc3cccnc3[N+](=O)[O-])CC2)CN(c2ccccc2F)C1=O (stereo not shown) [Example 39, 4-(2-fluorophenyl)-2-isopropyl-9-(2-(2-nitropyridin-3-yl)ethyl)-1-oxa-4,9-diazaspiro[5.5]undecan-3-one] | > 500 nM |  |
| CC1OC2(CCN(CCc3ccnc(C(F)(F)F)c3)CC2)CN(c2ccccc2)C1=O.Cl (stereo not shown) [Example 40, 2-methyl-4-phenyl-9-(2-(2-(trifluoromethyl)pyridin-4-yl)ethyl)-1-oxa-4,9-diazaspiro[5.5]undecan-3-one hydrochloride] |  | μ and σ1 dual binding: ++ |
| CC1OC2(CCN(CCc3cc(C#N)ccn3)CC2)CN(c2ccccc2)C1=O (stereo not shown) [Example 41, 2-(2-(2-methyl-3-oxo-4-phenyl-1-oxa-4,9-diazaspiro[5.5]undecan-9-yl)ethyl)isonicotinonitrile] |  | μ and σ1 dual binding [2]: ++ |
| CC1OC2(CCN(CCc3cccc(N)n3)CC2)CN(c2cnccc2C(F)(F)F)C1=O (stereo not shown) [Example 42, 9-(2-(6-aminopyridin-2-yl)ethyl)-2-methyl-4-(4-(trifluoromethyl)pyridin-3-yl)-1-oxa-4,9-diazaspiro[5.5]undecan-3-one hydrochloride] | > 500 nM |  |
| CC1OC2(CCN(CCc3cccnc3[N+](=O)[O-])CC2)CN(c2cnccc2C(F)(F)F)C1=O (stereo not shown) [Example 43, 2-methyl-9-(2-(2-nitropyridin-3-yl)ethyl)-4-(4-(trifluoromethyl)pyridin-3-yl)-1-oxa-4,9-diazasprio[5.5]undecan-3-one] | > 500 nM |  |
| CC1OC2(CCN(CCc3ncccc3Cl)CC2)CN(c2cnccc2C(F)(F)F)C1=O.Cl (stereo not shown) [Example 44, 9-(2-(3-chloropyridin-2-yl)ethyl)-2-methyl-4-(4-(trifluoromethyl)pyridin-3-yl)-1-oxa-4,9-diazaspiro[5.5]undecan-3-one hydrochloride] |  | μ and σ1 dual binding: ++ |
| CC1OC2(CCN(CCc3ncccc3Cl)CC2)CN(Cc2ccc(C(F)(F)F)cn2)C1=O (stereo not shown) [Example 45, 9-(2-(3-chloropyridin-2-yl)ethyl)-2-methyl-4-((5-(trifluoromethyl)pyridin-2-yl)methyl)-1-oxa-4,9-diazaspiro[5.5]undecan-3-one hydrochloride] | < 100 nM |  |
| CC1OC2(CCN(CCc3ncccc3Cl)CC2)CN(Cc2ccc(F)cn2)C1=O (stereo not shown) [Example 46, 9-(2-(3-chloropyridin-2-yl)ethyl)-4-((5-fluoropyridin-2-yl)methyl)-2-methyl-1-oxa-4,9-diazaspiro[5.5]undecan-3-one hydrochloride] | < 500 nM |  |
| CC1OC2(CCN(CCc3ncccc3F)CC2)CN(Cc2ccc(F)cn2)C1=O (stereo not shown) [Example 47, 9-(2-(3-fluoropyridin-2-yl)ethyl)-4-((5-fluoropyridin-2-yl)methyl)-2-methyl-1-oxa-4,9-diazaspiro[5.5]undecan-3-one hydrochloride] | < 500 nM |  |
| CC1OC2(CCN(CCc3ncccc3F)CC2)CN(c2cccnc2C(F)(F)F)C1=O (stereo not shown) [Example 48, 9-(2-(3-fluoropyridin-2-yl)ethyl)-2-methyl-4-(2-(trifluoromethyl)pyridin-3-yl)-1-oxa-4,9-diazaspiro[5.5]undecan-3-one] | > 500 nM |  |
| CC1OC2(CCN(CCc3cccc(C(F)(F)F)n3)CC2)CN(Cc2ccc(F)cn2)C1=O.Cl (stereo not shown) [Example 49, 4-((5-fluoropyridin-2-yl)methyl)-2-methyl-9-(2-(6-(trifluoromethyl)pyridin-2-yl)ethyl)-1-oxa-4,9-diazaspiro[5.5]undecan-3-one hydrochloride] |  | μ and σ1 dual binding: ++ |
| CC1OC2(CCN(CCc3ccncc3Cl)CC2)CN(c2ccccc2)C1=O (stereo not shown) [Example 50, 9-(2-(3-chloropyridin-4-yl)ethyl)-2-methyl-4-phenyl-1-oxa-4,9-diazaspiro[5.5]undecan-3-one hydrochloride] |  | Ki: < 500 nM |
| COc1ccc(CCN2CCC3(CC2)CN(c2ccccc2)C(=O)CO3)cc1 [Example 52, 9-(4-methoxyphenethyl)-4-phenyl-1-oxa-4,9-diazaspiro[5.5]undecan-3-one] |  | μ and σ1 dual binding [2]: ++ |
| CC1OC2(CCN(CCc3cccs3)CC2)CN(c2ccccc2)C1=O (stereo not shown) [Example 53, 2-methyl-4-phenyl-9-(2-(thiophen-2-yl)ethyl)-1-oxa-4,9-diazaspiro[5.5]undecan-3-one] |  | Ki: < 100 nM |
| CC1OC2(CCN(CCc3cccc(F)c3)CC2)CN(c2ccccc2)C1=O (stereo not shown) [Example 54, 9-(3-fluorophenethyl)-2-methyl-4-phenyl-1-oxa-4,9-diazaspiro[5.5]undecan-3-one hydrochloride] | < 100 nM |  |
| CC1OC2(CCN(CCc3ccc(F)cc3)CC2)CN(c2ccccc2)C1=O (stereo not shown) [Example 55, 9-(4-fluorophenethyl)-2-methyl-4-phenyl-1-oxa-4,9-diazaspiro[5.5]undecan-3-one hydrochloride] | < 100 nM |  |
| CC1OC2(CCN(CCn3cccn3)CC2)CN(c2ccccc2)C1=O (stereo not shown) [Example 56] |  | μ and σ1 dual binding [2]: ++ |
| COc1ccccc1CCN1CCC2(CC1)CN(c1ccccc1)C(=O)C(C)O2 (stereo not shown) [Example 57, 9-(2-methoxyphenethyl)-2-methyl-4-phenyl-1-oxa-4,9-diazaspiro[5.5]undecan-3-one hydrochloride] |  | Ki: < 100 nM |

| Compound | Ki [1] | further results |
| --- | --- | --- |
| CC1OC2(CCN(CCc3ccccn3)CC2)CN(c2ccccc2)C1=O (stereo not shown) [Example 58, 2-methyl-4-phenyl-9-(2-(pyridin-2-yl)ethyl)-1-oxa-4,9-diazaspiro[5.5]undecan-3-one] | < 100 nM |  |
| CC1OC2(CCN(CC3CCOCC3)CC2)CN(c2ccccc2)C1=O.Cl (stereo not shown) [Example 59, 2-methyl-4-phenyl-9-((tetrahydro-2H-pyran-4-yl)methyl)-1-oxa-4,9-diazaspiro[5.5]undecan-3-one hydrchloride] |  | μ and σ1 dual binding: ++ |
| CC1OC2(CCN(CCCc3ccccc3)CC2)CN(c2ccccc2)C1=O (stereo not shown) [Example 60, 2-methyl-4-phenyl-9-(3-phenylpropyl)-1-oxa-4,9-diazaspiro[5.5]undecan-3-one hydrochloride] |  | Ki: < 500 nM |
| Cc1ncsc1CCN1CCC2(CC1)CN(c1ccccc1)C(=O)C(C)O2 (stereo not shown) [Example 61, 2-methyl-9-(2-(4-methylthiazol-5-yl)ethyl)-4-phenyl-1-oxa-4,9-diazaspiro[5.5]undecan-3-one hydrochloride] |  | Ki: < 500 nM |
| CC1OC2(CCN(CCn3ccc4ccccc43)CC2)CN(c2ccccc2)C1=O (stereo not shown) [Example 62, 9-(2-(1H-indol-1-yl)ethyl)-2-methyl-4-phenyl-1-oxa-4,9-diazaspiro[5.5]undecan-3-one hydrochloride] |  | Ki: < 100 nM |
| COC(=O)CCN1CCC2(CC1)CN(c1ccccc1)C(=O)C(C)O2 (stereo not shown) [Example 64, methyl 3-(2-methyl-3-oxo-4-phenyl-1-oxa-4,9-diazaspiro[5.5]undecan-9-yl)propanoate] | > 500 nM |  |
| CC1OC2(CCN(CCN3CCOCC3)CC2)CN(c2ccccc2)C1=O (stereo not shown) [Example 65, 2-methyl-9-(2-morpholinoethyl)-4-phenyl-1-oxa-4,9-diazaspiro[5.5]undecan-3-one] | > 500 nM |  |
| CC1OC2(CCN(CCc3ccc([N+](=O)[O-])cc3)CC2)CN(c2ccccc2)C1=O (stereo not shown) [Example 66, 2-methyl-9-(4-nitrophenethyl)-4-phenyl-1-oxa-4,9-diazaspiro[5.5]undecan-3-one] | > 500 nM |  |
| CC1OC2(CCN(CCc3cccc([N+](=O)[O-])c3)CC2)CN(c2ccccc2)C1=O (stereo not shown) [Example 67, 2-methyl-9-(3-nitrophenethyl)-4-phenyl-1-oxa-4,9-diazaspiro[5.5]undecan-3-one] | > 500 nM |  |
| CC1OC2(CCN(CCc3ccccc3[N+](=O)[O-])CC2)CN(c2ccccc2)C1=O (stereo not shown) [Example 68, 2-methyl-9-(2-nitrophenethyl)-4-phenyl-1-oxa-4,9-diazapspiro[5.5]undecan-3-one] | > 500 nM |  |
| CC1OC2(CCN(CCn3ccc4cccnc43)CC2)CN(c2ccccc2)C1=O.Cl (stereo not shown) [Example 69, 9-(2-(1H-pyrrolo[2,3-b]pyridin-1-yl)ethyl)-2-methyl-4-phenyl-1-oxa-4,9-diazaspiro[5.5]undecan-3-one hydrochloride] |  | μ and σ1 dual binding: ++ |
| COC(=O)c1ccc(CCN2CCC3(CC2)CN(c2ccccc2)C(=O)C(C)O3)cc1.Cl (stereo not shown) [Example 70, methyl 4-(2-(2-methyl-3-oxo-4-phenyl-1-oxa-4,9-diazaspiro[5.5]undecan-9-yl)ethyl)benzoate hydrochloride] |  | μ and σ1 dual binding: ++ |
| CC1OC2(CCN(CC(=O)Nc3ccccc3)CC2)CN(c2ccccc2)C1=O (stereo not shown) [Example 71, 2-(2-methyl-3-oxo-4-phenyl-1-oxa-4,9-diazaspiro[5.5]undecan-9-yl)-N-phenylacetamide] | > 500 nM |  |
| CC1OC2(CCN(CCOc3ccccc3)CC2)CN(c2ccccc2)C1=O.Cl (stereo not shown) [Example 72, 2-methyl-9-(2-phenoxyethyl)-4-phenyl-1-oxa-4,9-diazaspiro[5.5]undecan-3-one hydrochloride] |  | μ and σ1 dual binding: ++ |
| CC1OC2(CCN(CCc3cccnc3)CC2)CN(c2ccccc2)C1=O (stereo not shown) [Example 73, 2-methyl-4-phenyl-9-(2-(pyridin-3-yl)ethyl)-1-oxa-4,9-diazaspiro[5.5]undecan-3-one] | < 500 nM |  |
| CC1OC2(CCN(CCn3c(=O)oc4ccccc43)CC2)CN(c2ccccc2)C1=O (stereo not shown) [Example 74, 3-(2-(2-methyl-3-oxo-4-phenyl-1-oxa-4,9-diazaspiro[5.5]undecan-9-yl)ethyl)benzo[d]oxazol-2(3H)-one hydrochloride] | < 500 nM |  |
| CC1OC2(CCN(CCc3cccc(C#N)c3)CC2)CN(c2ccccc2)C1=O (stereo not shown) [Example 75, 3-(2-(2-methyl-3-oxo-4-phenyl-1-oxa-4,9-diazaspiro[5.5]undecan-9-yl)ethyl)benzonitrile hydrochloride] | < 100 nM |  |
| CC1OC2(CCN(CCc3ccc(C#N)cc3)CC2)CN(c2ccccc2)C1=O.Cl (stereo not shown) [Example 76, 4-(2-(2-methyl-3-oxo-4-phenyl-1-oxa-4,9-diazaspiro[5.5]undecan-9-yl)ethyl)benzonitrile hydrochloride] |  | μ and σ1 dual binding: ++ |
